Measured values: patent US20230013669A1, “Antibacterial Treatment Using a Cannabinoid and an Active Agent” (priority 2019, published 2023)
Where “and” joins values, the source holds several entries; their conditions need not be identical. Equal values may be shown once.

Tested on: Escherichia coli ATCC 25922 (GN_001)
Test: Synergy of cannabidiol with cell-wall disrupting agent (CBD MIC in combination, FICI)
Format: cell-based
Experimental: The compounds were stored short term at 4° C.
Analysis was performed using Microsoft Excel.

[1] = CBD with Colistin, Escherichia coli ATCC 25922
[2] = CBD with MCC_6442, Escherichia coli ATCC 25922
[3] = CBD with Ticarcillin, Escherichia coli ATCC 25922

In the case of `C=C(C)C1CCC(C)=CC1c1c(O)cc(CCCCC)cc1O` (stereo not shown) [Cannabidiol, 2-[3-methyl-6-(1-methylethenyl)-2-cyclohexen-1-yl]-5-pentyl-1,3-benzenediol], the “CBD MIC with Aztreonam” value (Aztreonam at 0.062 μg/mL) is reported as 1 ng/mL, the “CBD MIC with Aztreonam” value (Aztreonam at 0.25 μg/mL) is reported as 1 ng/mL and the “CBD MIC with Aztreonam” value (Aztreonam at 0.5 μg/mL) is reported as 1 ng/mL. The “CBD MIC with Aztreonam” value (Aztreonam at […]) was 1 ng/mL, the FICI (CBD with Aztreonam at 0.015 μg/mL, CBD MIC taken as 256 μg/mL) was 1.12 and the FICI (CBD with Aztreonam at 0.031 μg/mL, CBD MIC taken as 256 μg/mL) was 1.248. For the same compound, the FICI (CBD with Aztreonam at 0.062 μg/mL, CBD MIC taken as 256 μg/mL) was 0.496, the FICI (CBD with Aztreonam at 0.25 μg/mL, CBD MIC taken as 256 μg/mL) was 2 and the FICI (CBD with Aztreonam at 0.5 μg/mL, CBD MIC taken as 256 μg/mL) was 4. For the same compound, the FICI range (CBD with Aztreonam, Synergy table (Table 76)) was 0.48, the FICI range (CBD with Aztreonam, all tested concentrations (Table 74)) was 0.5-4 and the FICI (CBD with Cefepime at 0.015 μg/mL, CBD MIC taken as 256 μg/mL) was 1.484 and 1.242. It also gave an FICI (CBD with Cefepime at 0.062 μg/mL, CBD MIC taken as 256 μg/mL) of 2, an FICI (CBD with Cefepime at 0.25 μg/mL, CBD MIC taken as 256 μg/mL) of 8.065 and an FICI (CBD with Cefepime at 0.25 μg/mL, CBD MIC taken as 256 μg/mL, listed as cannabidiol) of 4.032. For the same compound, the FICI (CBD with Cefepime at 0.5 μg/mL, CBD MIC taken as 256 μg/mL) was 16.13 and 8.065, the FICI range (CBD with Cefepime, all tested concentrations (Table 79), listed as CBD) was 1-16.13 and 0.5-8.06 and the FICI (CBD with Cefotetan at 0.015 μg/mL, CBD MIC taken as 256 μg/mL) was 1.06. It also gave an FICI (CBD with Cefotetan at 0.031 μg/mL, CBD MIC taken as 256 μg/mL) of 1.124, an FICI (CBD with Cefotetan at 0.062 μg/mL, CBD MIC taken as 256 μg/mL) of 1.248 and an FICI (CBD with Cefotetan at 0.5 μg/mL, CBD MIC taken as 256 μg/mL) of 2. The “FICI range (MIC table)” value (CBD with Cefotetan, Escherichia coli ATCC 25922) was 0.5-2, the FICI range (CBD with Cefotetan, Synergy table (Table 71)) was 0.5 and the FICI (CBD with Ceftazidime at 0.015 μg/mL, Escherichia coli ATCC 25922) was 1.242. It also gave an FICI (CBD with Ceftazidime at 0.031 μg/mL, Escherichia coli ATCC 25922) of 1.5, an FICI (CBD with Ceftazidime at 0.062 μg/mL, Escherichia coli ATCC 25922) of 2 and an FICI (CBD with Ceftazidime at 0.25 μg/mL, Escherichia coli ATCC 25922) of 4.032. For the same compound, the FICI (CBD with Ceftazidime at 0.5 μg/mL, Escherichia coli ATCC 25922) was 8.065, the “FICI range (MIC table)” value (CBD with Ceftazidime, Escherichia coli ATCC 25922) was 1.24-8.06 and the FICI (CBD with Cefuroxime at 0.25 μg/mL, Escherichia coli ATCC 25922) was 1.125. The FICI (CBD with Cefuroxime at 1 μg/mL, Escherichia coli ATCC 25922) was 1.5, the FICI (CBD with Cefuroxime at 2 μg/mL, Escherichia coli ATCC 25922) was 1.001 and the FICI (CBD with Cefuroxime at 4 μg/mL, Escherichia coli ATCC 25922) was 2. It also gave an FICI (CBD with Cefuroxime at 8 μg/mL, Escherichia coli ATCC 25922) of 4, an FICI (CBD with Colistin at 0.015 μg/mL, Escherichia coli ATCC 25922) of 1.03 and an FICI (CBD with Colistin at 0.03 μg/mL, Escherichia coli ATCC 25922) of 1.06. The FICI (CBD with Colistin at 0.06 μg/mL, Escherichia coli ATCC 25922) was 0.1512, the FICI (CBD with Colistin at 0.25 μg/mL, Escherichia coli ATCC 25922) was 0.5039 and the FICI (CBD with Colistin at 0.5 μg/mL, Escherichia coli ATCC 25922) was 1. For the same compound, the “FICI range (MIC table)” value [1] was 0.15-1.06, the “FICI range (Synergy table)” value [1] was 0.15-0.5 and the “FICI range (MIC table)” value [2] was 0.5-1.25. The “FICI range (Synergy table)” value [2] was 0.5, the FICI (CBD with MCC_6442 at 0.25 μg/mL, Escherichia coli ATCC 25922) was 1.0625 and the FICI (CBD with MCC_6442 at 0.5 μg/mL, Escherichia coli ATCC 25922) was 1.125. The FICI (CBD with MCC_6442 at 2 μg/mL, Escherichia coli ATCC 25922, listed as CBD) was 0.5, the FICI range (CBD with Octapeptin C4, Synergy table (Table 85), listed as CBD) was 0.5 and 0.31-0.5 and the FICI range (CBD with Octapeptin C4, all tested concentrations (Table 83), listed as CBD) was 0.5-1.25 and 0.31-1.13. The FICI (CBD with Octapeptin C4 at 0.5 μg/mL, CBD MIC taken as 256 μg/mL) was 1.0625, the FICI (CBD with Octapeptin C4 at 1 μg/mL, CBD MIC taken as 256 μg/mL) was 1.125 and the FICI (CBD with Octapeptin C4 at 2 μg/mL, CBD MIC taken as 256 μg/mL) was 0.3125. The FICI (CBD with Octapeptin C4 at 4 μg/mL, CBD MIC taken as 256 μg/mL) was 0.5002 and 0.5005, the FICI (CBD with Octapeptin C4 at […], CBD MIC taken as 256 μg/mL) was 1.016 and the FICI range (CBD with Spero SPR206, 1st of 3 experiments) was 0.5-16. For the same compound, the FICI range (CBD with Spero SPR206, 2nd of 3 experiments, listed as CBD) was 0.13-1.06 and 0.07-1.03, the FICI range (CBD with Spero SPR206, 3rd of 3 experiments) was 1.01-8 and the FICI (CBD with Spero SPR206 at 0.007 μg/mL, 2nd of 3 experiments, CBD MIC taken as 256 μg/mL) was 1.014. It also gave an FICI (CBD with Spero SPR206 at 0.015 μg/mL, 2nd of 3 experiments, CBD MIC taken as 256 μg/mL) of 1.03, an FICI (CBD with Spero SPR206 at 0.062 μg/mL, 2nd of 3 experiments, CBD MIC taken as 256 μg/mL) of 0.1279 and an FICI (CBD with Spero SPR206 at 0.25 μg/mL, 2nd of 3 experiments, CBD MIC taken as 256 μg/mL) of 0.5039. It also gave an FICI (CBD with Spero SPR206 at 0.25 μg/mL, 3rd of 3 experiments, CBD MIC taken as 256 μg/mL) of 1.5, an FICI (CBD with Spero SPR206 at 0.5 μg/mL, 1st of 3 experiments, CBD MIC taken as 256 μg/mL) of 2 and an FICI (CBD with Spero SPR206 at 0.5 μg/mL, 3rd of 3 experiments, CBD MIC taken as 256 μg/mL) of 1.008. The FICI (CBD with Spero SPR206 at 1 μg/mL, 1st of 3 experiments, CBD MIC taken as 256 μg/mL) was 4, the FICI (CBD with Spero SPR206 at 1 μg/mL, 3rd of 3 experiments, CBD MIC taken as 256 μg/mL) was 2.002 and 2.001 and the FICI (CBD with Spero SPR206 at 2 μg/mL, 1st of 3 experiments, CBD MIC taken as 256 μg/mL) was 8. It also gave an FICI (CBD with Spero SPR206 at 2 μg/mL, 3rd of 3 experiments, CBD MIC taken as 256 μg/mL) of 4.001, an FICI (CBD with Spero SPR206 at 4 μg/mL, 1st of 3 experiments, CBD MIC taken as 256 μg/mL) of 16 and an FICI (CBD with Spero SPR206 at 4 μg/mL, 3rd of 3 experiments, CBD MIC taken as 256 μg/mL) of 8. For the same compound, the FICI (CBD with Ticarcillin at 0.5 μg/mL, Escherichia coli ATCC 25922) was 1.0625, the FICI (CBD with Ticarcillin at 1 μg/mL, Escherichia coli ATCC 25922) was 1.125 and the FICI (CBD with Ticarcillin at 4 μg/mL, Escherichia coli ATCC 25922) was 0.5005. The “FICI range (MIC table)” value [3] was 0.5-1.25, the “FICI range (Synergy table)” value [3] was 0.5 and the “CBD MIC with Cefepime” value (Cefepime at 0.031 μg/mL) was 1 ng/mL. For the same compound, the “CBD MIC with Cefepime” value (Cefepime at 0.062 μg/mL) was 1 ng/mL, the “CBD MIC with Cefepime” value (Cefepime at 0.25 μg/mL) was 1 ng/mL and the “CBD MIC with Cefepime” value (Cefepime at 0.5 μg/mL) was 1 ng/mL. For the same compound, the “CBD MIC with Cefepime” value (Cefepime at […]) was 1 ng/mL, the “CBD MIC with Cefotetan” value (Cefotetan at 0.015 μg/mL) was greater than 32 µg/mL and the “CBD MIC with Cefotetan” value (Cefotetan at 0.015 μg/mL, Escherichia coli ATCC 25922) was greater than 256 µg/mL. The “CBD MIC with Cefotetan” value (Cefotetan at 0.031 μg/mL) was greater than 32 µg/mL, the “CBD MIC with Cefotetan” value (Cefotetan at 0.031 μg/mL, Escherichia coli ATCC 25922) was greater than 256 µg/mL and the “CBD MIC with Cefotetan” value (Cefotetan at 0.062 μg/mL) was greater than 32 µg/mL. For the same compound, the “CBD MIC with Cefotetan” value (Cefotetan at 0.062 μg/mL, Escherichia coli ATCC 25922) was greater than 256 µg/mL, the “CBD MIC with Cefotetan” value (Cefotetan at 0.25 μg/mL) was 0.001 µg/mL and the “CBD MIC with Cefotetan” value (Cefotetan at 0.25 μg/mL, Escherichia coli ATCC 25922) was 0.001 µg/mL. The “CBD MIC with Cefotetan” value (Cefotetan at 0.5 μg/mL) was 0.001 µg/mL, the “CBD MIC with Cefotetan” value (Cefotetan at 0.5 μg/mL, Escherichia coli ATCC 25922) was 0.001 µg/mL and the “CBD MIC with Cefotetan” value (Cefotetan at […]) was 0.001 µg/mL. For the same compound, the “CBD MIC with Cefotetan” value (Cefotetan at […], Escherichia coli ATCC 25922) was 0.001 µg/mL, the “CBD MIC with Ceftazidime” value (Ceftazidime at 0.25 μg/mL, Escherichia coli ATCC 25922) was 1 ng/mL and the “CBD MIC with Ceftazidime” value (Ceftazidime at 0.5 μg/mL, Escherichia coli ATCC 25922) was 1 ng/mL. The “CBD MIC with Cefuroxime” value (Cefuroxime at 2 μg/mL, Escherichia coli ATCC 25922) was 0.25 µg/mL.
